Measurements published in patent US10336762B2 (priority 2017, dated 2019).
pEC50, pIC50: −log10 of the molar value. Read-outs that look alike come from different tables or passages of the source.

What was measured:
IRAK4 enzyme = IRAK4 enzyme (Homo sapiens (Human), UniProt Q9NWZ3); assay: biochemical; type: biochemical; details: IRAK4 enzyme, 500 μM ATP
TNFα = assay: cells; type: cell-based, human; details: LPS-stimulated human monocytes, read-out: EC50 TNF
[1] = Homo sapiens, Monocyte, TNFα by TR-FRET
[2] = Homo sapiens, Monocyte, TNFα content

Chain of IRAK4 enzyme (Q9NWZ3 whole entry): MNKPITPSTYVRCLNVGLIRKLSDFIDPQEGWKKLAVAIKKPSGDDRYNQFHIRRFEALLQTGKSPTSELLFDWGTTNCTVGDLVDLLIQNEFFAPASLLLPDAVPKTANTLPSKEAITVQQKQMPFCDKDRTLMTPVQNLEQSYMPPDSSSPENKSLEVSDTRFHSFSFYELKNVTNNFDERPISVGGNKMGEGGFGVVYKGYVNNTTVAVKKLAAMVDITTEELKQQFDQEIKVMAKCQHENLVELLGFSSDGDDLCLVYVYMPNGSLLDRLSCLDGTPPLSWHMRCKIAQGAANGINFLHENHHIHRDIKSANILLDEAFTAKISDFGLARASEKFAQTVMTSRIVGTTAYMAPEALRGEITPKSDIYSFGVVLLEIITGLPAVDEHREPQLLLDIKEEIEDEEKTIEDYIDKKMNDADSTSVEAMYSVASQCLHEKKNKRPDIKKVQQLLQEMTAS

Structure (SMILES) | pIC50 (IRAK4 enzyme; TR-FRET) | pEC50 (TNFα; [1]) | pIC50 (IRAK4 enzyme; TR-FRET (HTRF)) | pEC50 (TNFα; [2]) | pEC50 (TNFα; TNFα content)
Cn1nccc1CNC(=O)c1cnc(-c2ccc3cc(C#N)cnn23)cc1NC12CCC(O)(CC1)CC2 [Example 934, 6-(3-cyanopyrrolo[1,2-b]pyridazin-7-yl)-4-((4-hydroxybicyclo[2.2.2]octan-1-yl)amino)-N-((1-methyl-1H-pyrazol-5-yl)methyl)nicotinamide] | 8.52 | 6.57 | – | – | –
CC(C)(O)[C@H](F)CNC(=O)c1cnc(-c2ccc3cc(C#N)cnn23)cc1NC1C2CC3CC1CC(O)(C3)C2 (stereo partly drawn) [Example 419, 6-(3-cyanopyrrolo[1,2-b]pyridazin-7-yl)-N-((R)-2-fluoro-3-hydroxy-3-methylbutyl)-4-((5-hydroxyadamantan-2-yl)amino)nicotinamide] | – | – | 8.52 | 6.90 | –
CC(C)(O)[C@H](F)CNC(=O)c1cnc(-c2ccc3cc(C#N)cnn23)cc1NCC1(O)CC1 [Example 97, (R)-6-(3-cyanopyrrolo[1,2-b]pyridazin-7-yl)-N-(2-fluoro-3-hydroxy-3-methylbutyl)-4-(((1-hydroxycyclopropyl)methyl)amino)nicotinamide] | 8.70 | – | – | 6.74 | –
CC(C)(O)[C@H](F)CNC(=O)c1cnc(-c2ccc3cc(C#N)cnn23)cc1N[C@]1(C)C[C@H](O)C1 [Example 433, 6-(3-cyanopyrrolo[1,2-b]pyridazin-7-yl)-N-((R)-2-fluoro-3-hydroxy-3-methylbutyl)-4-(((1s,3S)-3-hydroxy-1-methylcyclobutyl)amino) nicotinamide] | – | – | > 9.00 | 7.33 | –
CC1(C)OCCC1Nc1cc(-c2ccc3cc(C#N)cnn23)ncc1C(=O)NC[C@@H](F)C(C)(C)O (stereo partly drawn) [Example 130, 6-(3-cyanopyrrolo[1,2-b]pyridazin-7-yl)-4-((2,2-dimethyltetrahydrofuran-3-yl)amino)-N-((R)-2-fluoro-3-hydroxy-3-methylbutyl)nicotinamide] | 8.52 | – | – | 6.66 | –
CC(C)(O)[C@H](F)CNC(=O)c1cnc(-c2ccc3cc(C#N)cnn23)cc1N[C@H]1C[C@H](CN2CCOC2=O)C1 [Example 714, 6-(3-cyanopyrrolo[1,2-b]pyridazin-7-yl)-N-((R)-2-fluoro-3-hydroxy-3-methylbutyl)-4-(((1r,3R)-3-((2-oxooxazolidin-3-yl)methyl)cyclobutyl)amino)nicotinamide] | – | – | > 9.00 | 7.46 | –
CC(C)(O)[C@H](F)CNC(=O)c1cnc(-c2ccc3cc(C#N)cnn23)cc1Nc1ccc(-c2ccon2)cc1 [Example 773, (R)-6-(3-cyanopyrrolo[1,2-b]pyridazin-7-yl)-N-(2-fluoro-3-hydroxy-3-methylbutyl)-4-((4-(isoxazol-3-yl)phenyl)amino) nicotinamide] | – | – | 9.00 | 7.37 | –
CC(C)(O)[C@H](F)CNC(=O)c1cnc(-c2ccc3cc(C#N)cnn23)cc1N[C@H]1CC[C@H](NC(=O)C2CC2)CC1 [Example 297, 6-(3-cyanopyrrolo[1,2-b]pyridazin-7-yl)-4-(((1r,4R)-4-(cyclopropanecarbox-amido)cyclohexyl)amino)-N-((R)-2-fluoro-3-hydroxy-3-methylbutyl) nicotinamide] | 9.00 | – | – | 7.10 | –
CC(C)Nc1cc(-c2ccc3cc(C#N)cnn23)ncc1C(=O)N[C@H]1CC[C@H](C(C)(C)O)CC1 [Example 3, 6-(3-cyanopyrrolo[1,2-b]pyridazin-7-yl)-N-((1r,4r)-4-(2-hydroxypropan-2-yl)cyclohexyl)-4-(isopropylamino)nicotinamide] | > 9.00 | – | – | 7.21 | –
CC(C)(O)[C@H](F)CNC(=O)c1cnc(-c2ccc3cc(C#N)cnn23)cc1Nc1cncc(C(N)=O)c1 [Example 592, (R)-4-((5-carbamoyl-pyridin-3-yl)amino)-6-(3-cyanopyrrolo[1,2-b]pyridazin-7-yl)-N-(2-fluoro-3-hydroxy-3-methylbutyl) nicotinamide] | – | – | 9.00 | 6.65 | –
CC(=O)N[C@@H]1CCC[C@H](Nc2cc(-c3ccc4cc(C#N)cnn34)ncc2C(=O)NC[C@@H](F)C(C)(C)O)C1 [Example 532, 4-(((1S,3R)-3-acetamidocyclohexyl)amino)-6-(3-cyano-pyrrolo[1,2-b]pyridazin-7-yl)-N-((R)-2-fluoro-3-hydroxy-3-methylbutyl) nicotinamide] | – | – | 9.00 | 6.91 | –
CC(C)(O)[C@H](F)CNC(=O)c1cnc(-c2ccc3cc(C#N)cnn23)cc1N[C@H]1CC[C@H](c2ccon2)CC1 [Example 777, 6-(3-cyanopyrrolo[1,2-b]pyridazin-7-yl)-N-((R)-2-fluoro-3-hydroxy-3-methylbutyl)-4-(((1r,4R)-4-(isoxazol-3-yl)cyclohexyl)amino)nicotinamide] | – | – | > 9.00 | 7.82 | –
CC(C)(O)c1coc(CNC(=O)c2cnc(-c3ccc4cc(C#N)cnn34)cc2NC23CCC(O)(CC2)CC3)n1 [Example 622, 6-(3-cyanopyrrolo[1,2-b]pyridazin-7-yl)-4-((4-hydroxybicyclo[2.2.2]octan-1-yl)amino)-N-((4-(2-hydroxypropan-2-yl)oxazol-2-yl)methyl)nicotinamide] | – | – | 8.70 | 6.39 | –
CC(C)(O)[C@H](F)CNC(=O)c1cnc(-c2ccc3cc(C#N)cnn23)cc1NCCCCS(C)(=O)=O [Example 438, (R)-6-(3-cyanopyrrolo[1,2-b]pyridazin-7-yl)-N-(2-fluoro-3-hydroxy-3-methylbutyl)-4-((4-(methylsulfonyl)butyl)amino)nicotinamide] | – | – | 9.00 | 6.87 | –
CC(C)Nc1cc(-c2ccc3cc(C#N)cnn23)ncc1C(=O)N[C@H]1CC[C@H](NC(=O)N2CCOCC2)CC1 [Example 126, N-((1r,4r)-4-(6-(3-cyano-pyrrolo[1,2-b]pyridazin-7-yl)-4-(isopropylamino)nicotinamido)cyclohexyl) morpholine-4-carboxamide] | 9.00 | – | – | 7.04 | –
CC(C)(O)[C@H](F)CNC(=O)c1cnc(-c2ccc3cc(C#N)cnn23)cc1Nc1ccc(CN2CCCC2=O)cc1 [Example 200, (R)-6-(3-cyanopyrrolo[1,2-b]pyridazin-7-yl)-N-(2-fluoro-3-hydroxy-3-methylbutyl)-4-((4-((2-oxopyrrolidin-1-yl)methyl)phenyl)amino) nicotinamide] | 9.00 | – | – | 7.82 | –
CC(C)Nc1cc(-c2ccc3cc(C#N)cnn23)ncc1C(=O)NCCCS(C)(=O)=O [Example 85, 6-(3-cyanopyrrolo[1,2-b]pyridazin-7-yl)-4-(isopropyl-amino)-N-(3-(methylsulfonyl)propyl) nicotinamide] | 9.00 | – | – | 7.17 | –
CC(C)(O)[C@H](F)CNC(=O)c1cnc(-c2ccc3cc(C#N)cnn23)cc1NC1CC1CO (stereo partly drawn) [Example 321, 6-(3-cyanopyrrolo[1,2-b]pyridazin-7-yl)-N-((R)-2-fluoro-3-hydroxy-3-methylbutyl)-4-((2-(hydroxymethyl)cyclo-propyl)amino)nicotinamide] | > 9.00 | – | – | – | 7.42
CC(C)(O)[C@H](F)CNC(=O)c1cnc(-c2ccc3cc(C#N)cnn23)cc1Nc1cncc(C(F)F)c1 [Example 226, (R)-6-(3-cyanopyrrolo[1,2-b]pyridazin-7-yl)-4-((5-(difluoromethyl)pyridin-3-yl)amino)-N-(2-fluoro-3-hydroxy-3-methylbutyl)nicotinamide] | > 9.00 | – | – | 7.12 | –
COC(=O)C1(NC(=O)c2cnc(-c3ccc4cc(C#N)cnn34)cc2NC23CCC(O)(CC2)CC3)CC1 [Example 949, methyl 1-(6-(3-cyano-pyrrolo[1,2-b]pyridazin-7-yl)-4-((4-hydroxy-bicyclo[2.2.2]octan-1-yl)amino)nicotinamido) cyclopropane-1-carboxylate] | 9.00 | 7.21 | – | – | –
CC(C)(C)OC(=O)N[C@H]1CC[C@H](Nc2cc(-c3ccc4cc(C#N)cnn34)ncc2C(=O)NC[C@@H](F)C(C)(C)O)CC1 [Example 305, tert-butyl ((1R,4r)-4-((2-(3-cyanopyrrolo[1,2-b]pyridazin-7-yl-5-(((R)-2-fluoro-3-hydroxy-3-methylbutyl)carbamoyl)pyridin-4-yl)amino)cyclohexyl) carbamate] | 9.00 | – | – | 6.47 | –
N#CCNC(=O)c1cnc(-c2ccc3cc(C#N)cnn23)cc1NC12CCC(C(=O)N3CC(F)(F)C3)(CC1)CC2 [Example 474, N-(cyanomethyl)-6-(3-cyanopyrrolo[1,2-b]pyridazin-7-yl)-4-((4-(3,3-difluoroazetidine-1-carbonyl)bicyclo[2.2.2]octan-1-yl)amino)nicotinamide] | – | – | > 9.00 | 7.64 | –
CNc1cc(-c2ccc3cc(C#N)cnn23)ncc1C(=O)NCC#N [Example 463, N-(cyanomethyl)-6-(3-cyanopyrrolo[1,2-b]pyridazin-7-yl)-4-(methylamino)nicotinamide] | – | – | 8.52 | 6.79 | –
Cc1ncoc1[C@H]1CC[C@H](Nc2cc(-c3ccc4cc(C#N)cnn34)ncc2C(=O)NC[C@@H](F)C(C)(C)O)CC1 [Example 631, 6-(3-cyanopyrrolo[1,2-b]pyridazin-7-yl)-N-((R)-2-fluoro-3-hydroxy-3-methylbutyl)-4-(((1r,4R)-4-(4-methyloxazol-5-yl)cyclohexyl)amino) nicotinamide] | – | – | 8.70 | 7.68 | –
CC(=O)NC[C@H]1CC[C@H](Nc2cc(-c3ccc4cc(C#N)cnn34)ncc2C(=O)NC[C@@H](F)C(C)(C)O)CC1 [Example 557, 4-(((1r,4R)-4-(acetamidomethyl)cyclo-hexyl)amino)-6-(3-cyano-pyrrolo[1,2-b]pyridazin-7-yl)-N-((R)-2-fluoro-3-hydroxy-3-methylbutyl) nicotinamide] | – | – | > 9.00 | 7.57 | –
CC(C)(O)[C@H](F)CNC(=O)c1cnc(-c2ccc3cc(C#N)cnn23)cc1NC1CCC1 [Example 117, (R)-6-(3-cyanopyrrolo[1,2-b]pyridazin-7-yl)-4-(cyclobutyl-amino)-N-(2-fluoro-3-hydroxy-3-methylbutyl) nicotinamide] | > 9.00 | – | – | 7.33 | –
